The values below come from ChEMBL document CHEMBL3272016, “Potential inhibitors of collagen biosynthesis. 5,5-Difluoro-DL-lysine and 5,5-dimethyl-DL-lysine and their activation by lysyl-tRNA ligase” (J Med Chem, 1977).

Each structure is given as a SMILES string. Active and inactive are the calls of the source. No cut-off for these calls is given here.

The nature of data set [1]: Dissociation constant, pKa of the compound. Format: physicochemical.
Data set [2] relates to Escherichia coli B.
Description: Activity of Escherichia coli B lysyl-tRNA ligase after 15 mins by Lineweaver-Burk plot analysis
The subject of data set [3] is P388. The data set is described as follows: Cytotoxicity against mouse P388 cells assessed as growth inhibition at 0.5 mM after 72 hrs by hemocytometry. The format is functional. Particulars: P388, 72 h, read-out: GI.
For data set [4], the species on record is Mus musculus. The data set is described as follows: Inhibition of peptidyl lysine hydroxylase in mouse L929 fibroblasts assessed as release of [3H] as [3H]OH from [4,5-3H]lysylprotocollagen measured per mg of protein at 0.05 mM (reference value: 1228 cpm).
Data set [5] is filed under the species Mus musculus. In words: Inhibition of peptidyl lysine hydroxylase in mouse L929 fibroblasts assessed as release of [3H] as [3H]OH from [4,5-3H]lysylprotocollagen measured per mg of protein at 0.01 mM (reference value: 1228 cpm).
The species entered for data set [6] is Mus musculus. In words: Inhibition of peptidyl lysine hydroxylase in mouse L929 fibroblasts assessed as release of [3H] as [3H]OH from [4,5-3H]lysylprotocollagen measured per mg of protein at 5 mM (reference value: 1228 cpm).
Data set [7] is filed under the species Mus musculus. In words: Inhibition of peptidyl lysine hydroxylase in mouse L929 fibroblasts assessed as release of [3H] as [3H]OH from [4,5-3H]lysylprotocollagen measured per mg of protein at 2 mM (reference value: 1228 cpm).
Data set [8] is filed under the species Mus musculus. In words: Inhibition of peptidyl lysine hydroxylase in mouse L929 fibroblasts assessed as release of [3H] as [3H]OH from [4,5-3H]lysylprotocollagen measured per mg of protein at 0.10 mM (reference value: 1228 cpm).
The species entered for data set [9] is Mus musculus. The data set is described as follows: Inhibition of peptidyl lysine hydroxylase in mouse L929 fibroblasts.
The species entered for data set [10] is Mus musculus. The data set is described as follows: Inhibition of peptidyl lysine hydroxylase in mouse L929 fibroblasts assessed as release of [3H] as [3H]OH from [4,5-3H]lysylprotocollagen measured per mg of protein at 0.20 mM (reference value: 1228 cpm).
For data set [11], the system named is L929. The data set is described as follows: Inhibition of collagen biosynthesis in mouse L929 fibroblasts assessed as [3H]lysine/[14C]proline incorporation into protein at 5 mM. Format: functional, cell-based.
The species entered for data set [12] is Mus musculus. The data set is described as follows: Inhibition of peptidyl lysine hydroxylase in mouse L929 fibroblasts assessed as release of [3H] as [3H]OH from [4,5-3H]lysylprotocollagen measured per mg of protein at 1 mM (reference value: 1228 cpm).
Data set [13] concerns P388. The data set is described as follows: Cytotoxicity against mouse P388 cells assessed as growth inhibition at 0.55 mM after 72 hrs by hemocytometry. The format is functional, cell-based.
Data set [14] relates to P388. The data set is described as follows: Cytotoxicity against mouse P388 cells assessed as growth inhibition at 0.15 mM after 72 hrs by hemocytometry. Format: functional. The settings on record: P388, 72 h, read-out: GI.
Data set [15] in a line: Competitive inhibition of Escherichia coli B lysyl-tRNA ligase using lysine as substrate after 15 mins by double reciprocal plot analysis. The settings on record: read-out: Ki(app).

The pKa is the pH at which an ionisable group is half protonated. A low value points to a group that gives up its proton readily. Usually Km stands for the substrate concentration at which the rate is half of its maximum. As to `NCCCC[C@H](N)C(=O)O` [LYSINE], in data set [1], the pKa is 10.6. Besides, the Km in [2] is 0.5 µM.

`NCCSC[C@H](N)C(=O)O`: the pKa in data set [1] turned out to be 9.52. The inhibition of growth at 500 µM in data set [3] turned out to be 93%. Moreover, the Km in data set [2] was 1.4 µM.

`NCC(F)(F)CCC(N)C(=O)O` (racemic) came in with a pKa in data set [1] of 6.88. In addition, the Activity is 1270 cpm in data set [4]; 1220 cpm in data set [5]; 920 cpm in [6]; 1080 cpm in data set [7]; 1230 cpm in data set [8]; 1270 cpm in data set [10]. Further, the Activity in data set [12] was found to be 1070 cpm. In addition, the inhibition entry in [9] was “inactive”. Also, in [11], the result was inactive. The Km in data set [2] stood at 1310 µM. In addition, the “growth inhibition (GI)” value in data set [13] is “inactive”.

For the compound `NC(=O)NO` [HYDROXYUREA], the inhibition of growth at 150 µM in data set [14] is 87%.

`CC(C)(CN)CCC(N)C(=O)O` (racemic) displayed a pKa in data set [1] of 10.2. In addition, the Ki in data set [15] came to 16.2 mM. In addition, in data set [13], the “growth inhibition (GI)” value was “inactive”.
